Assay results as given in article PMC8854719, “Phase 1A/1B dose-escalation and -expansion study to evaluate the safety, pharmacokinetics, food effects and antitumor activity of pamiparib in advanced solid tumours” (British Journal of Cancer, 2021).
Several values for one entry are separate records, joined by “and”; a condition that tells them apart may be missing. Equal entries are not always repeated.

Test system: epithelial ovarian cancer (EOC)
Experiment: Tumour response and PFS per RECIST v1.1, EOC efficacy-evaluable population
Format: in vivo, human
Method: Tumour response was evaluated by RECIST v1.1. For patients with ovarian cancer, tumour response was assessed per RECIST v1.1 and by Gynecologic Cancer Intergroup (GCIG) CA-125 criteria. Tumour response for patients with prostate cancer was assessed by Prostate Cancer Clinical Trials Working Group 2 (PCWG2) criteria. Objective response rate (ORR) was defined as the proportion of patients achieving a confirmed complete response (CR) or partial response (PR) on study treatment. Blood tumour antigens (e.g., carcinoembryonic antigen for colorectal cancer, CA-125 for ovarian cancer and prostate-specific antigen [PSA] for mCRPC) were assessed during screening, every 6 weeks after the first pamiparib dose in the first 12 months, and every 9 weeks thereafter.
Analyses of ORR (95% confidence interval [CI]) by investigator assessment were performed using predefined subgroups of the EOC population, including age group (<65 years versus ≥65 years), baseline ECOG performance status (0 versus 1), solid tumour stage (Stage III versus IV), BRCA/HRD status (germline BRCA mutation versus wild-type or unknown; germline or somatic BRCA mutation versus wild-type or unknown; HRD-positive versus negative or unknown), and platinum response status (platinum-sensitive versus platinum-resistant versus platinum-refractory).
The safety population comprised all patients in the dose-escalation and dose-expansion phases who received at least one dose of pamiparib (Supplementary Table S2). Patients in the safety analysis set for whom valid pamiparib PK parameters were estimated and for whom evaluable PD results were available represented the PK population and the PD population, respectively. The efficacy-evaluable population included patients in the safety analysis set who had at least one evaluable postbaseline tumour assessment or those who discontinued due to clinical disease progression or early death before tumour assessment could be performed. The EOC efficacy-evaluable population was a subset of the overall efficacy-evaluable population that included patients with EOC from both the dose-escalation and dose-expansion phases. Patients in the dose-expansion phase without measurable disease at baseline per RECIST v1.1 were excluded from the efficacy-evaluable population.
Descriptive statistics were used to summarise all study data (see Supplemental Appendix). Progression-free survival (PFS) and event-free rates were estimated using the Kaplan–Meier method along with the corresponding 95% CI. Pharmacokinetic parameters were derived using standard non-compartmental methods with Phoenix WinNonlin Version 6.4 or higher (Pharsight Corp., Mountain View, California).

[1] = EOC evaluable for efficacy (N=60)
[2] = EOC, Total BID Dosage Group (n=51)
[3] = EOC, Total QD Dosage Group (n=9)
[4] = Total BID dosage group, EOC efficacy-evaluable (n = 51)

C[C@]12CCCN1CC1=NNC(=O)c3cc(F)cc4[nH]c2c1c34 [pamiparib]
CR [1]: 6.7%
PR [1]: 31.7%
Event-free rate, 1 year (EOC, Total (N=60)): 41.0 (26.93-54.59) % (95% CI)
Event-free rate, 2 years (EOC, Total (N=60)): 14.8 (5.46-28.41) % (95% CI)
ORR, subgroup Age <65 (EOC, Total (N=60)): 39.5 (24.98-55.59) [43/60] % (95% CI)
ORR, subgroup Age ≥65 (EOC, Total (N=60)): 35.3 (14.21-61.67) [17/60] % (95% CI)
ORR, subgroup Baseline ECOG performance status 0 (EOC, Total (N=60)): 45.8 (25.55-67.18) [24/60] % (95% CI)
ORR, subgroup Baseline ECOG performance status ≥1 (EOC, Total (N=60)): 33.3 (18.56-50.97) [36/60] % (95% CI)
ORR, subgroup Germline BRCA status Mutant (EOC, Total (N=60)): 66.7 (40.99-86.66) [18/60] % (95% CI)
ORR, subgroup Germline BRCA status Wild-type/Unknown (EOC, Total (N=60)): 26.2 (13.86-42.04) [42/60] % (95% CI)
ORR, subgroup Germline or somatic BRCA status Mutant (EOC, Total (N=60)): 61.3 (42.19-78.15) [31/60] % (95% CI)
ORR, subgroup Germline or somatic BRCA status Wild-type/Unknown (EOC, Total (N=60)): 13.8 (3.89-31.66) [29/60] % (95% CI)
ORR, subgroup HRD status Negative/Unknown (EOC, Total (N=60)): 15.4 (4.36-34.87) [26/60] % (95% CI)
ORR, subgroup HRD status Positive (EOC, Total (N=60)): 55.9 (37.89-72.81) [34/60] % (95% CI)
ORR, subgroup Platinum-sensitivity status Refractory (EOC, Total (N=60)): 8.3 (0.21-38.48) [12/60] % (95% CI)
ORR, subgroup Platinum-sensitivity status Resistant (EOC, Total (N=60)): 16.7 (4.74-37.38) [24/60] % (95% CI)
ORR, subgroup Platinum-sensitivity status Sensitive (EOC, Total (N=60)): 75.0 (53.29-90.23) [24/60] % (95% CI)
ORR, subgroup Solid tumor stage 3 (EOC, Total (N=60)): 45.5 (28.11-63.65) [33/60] % (95% CI)
ORR, subgroup Solid tumor stage 4 (EOC, Total (N=60)): 26.1 (10.23-48.41) [23/60] % (95% CI)
PFS censored: No disease progression or death (EOC, Total (N=60)): 17 (28.3) n (%)
PFS censored: No postbaseline assessment (EOC, Total (N=60)): 2 (3.3) n (%)
PFS censored: ≥2 consecutive missed assessments (EOC, Total (N=60)): 2 (3.3) n (%)
PFS events: Death (EOC, Total (N=60)): 9 (15.0) n (%)
PFS events: Disease progression (EOC, Total (N=60)): 30 (50.0) n (%)
PFS: Censored (EOC, Total (N=60)): 21 (35.0) n (%)
PFS: Events (EOC, Total (N=60)): 39 (65.0) n (%)
Progression-Free Survival, Median (EOC, Total (N=60)): 8.3 (5.45-13.67) months (95% CI)
Event-free rate, 1 year [2]: 45.6 (29.51-60.25) % (95% CI)
Event-free rate, 2 years [2]: 16.4 (5.98-31.33) % (95% CI)
ORR, subgroup Age <65 [2]: 42.1 (26.31-59.18) [38/51] % (95% CI)
ORR, subgroup Age ≥65 [2]: 38.5 (13.86-68.42) [13/51] % (95% CI)
ORR, subgroup Baseline ECOG performance status 0 [2]: 47.8 (26.82-69.41) [23/51] % (95% CI)
ORR, subgroup Baseline ECOG performance status ≥1 [2]: 35.7 (18.64-55.93) [28/51] % (95% CI)
ORR, subgroup Germline BRCA status Mutant [2]: 73.3 (44.90-92.21) [15/51] % (95% CI)
ORR, subgroup Germline BRCA status Wild-type/Unknown [2]: 27.8 (14.20-45.19) [36/51] % (95% CI)
ORR, subgroup Germline or somatic BRCA status Mutant [2]: 64.3 (44.07-81.36) [28/51] % (95% CI)
ORR, subgroup Germline or somatic BRCA status Wild-type/Unknown [2]: 13.0 (2.78-33.59) [23/51] % (95% CI)
ORR, subgroup HRD status Negative/Unknown [2]: 14.3 (3.05-36.34) [21/51] % (95% CI)
ORR, subgroup HRD status Positive [2]: 60.0 (40.60-77.34) [30/51] % (95% CI)
ORR, subgroup Platinum-sensitivity status Refractory [2]: 9.1 (0.23-41.28) [11/51] % (95% CI)
ORR, subgroup Platinum-sensitivity status Resistant [2]: 21.1 (6.05-45.57) [19/51] % (95% CI)
ORR, subgroup Platinum-sensitivity status Sensitive [2]: 76.2 (52.83-91.78) [21/51] % (95% CI)
ORR, subgroup Solid tumor stage 3 [2]: 53.6 (33.87-72.49) [28/51] % (95% CI)
ORR, subgroup Solid tumor stage 4 [2]: 23.8 (8.22-47.17) [21/51] % (95% CI)
PFS censored: No disease progression or death [2]: 15 (29.4) n (%)
PFS censored: No postbaseline assessment [2]: 2 (3.9) n (%)
PFS censored: ≥2 consecutive missed assessments [2]: 2 (3.9) n (%)
PFS events: Death [2]: 6 (11.8) n (%)
PFS events: Disease progression [2]: 26 (51.0) n (%)
PFS: Censored [2]: 19 (37.3) n (%)
PFS: Events [2]: 32 (62.7) n (%)
Progression-Free Survival, Median [2]: 9.9 (5.49-14.62) months (95% CI)
Best overall response: Complete response (EOC, Total BID and QD (N=60)): 4 (6.7) n (%)
Best overall response: Not assessed (EOC, Total BID and QD (N=60)): 3 (5.0) n (%)
Best overall response: Not evaluable (EOC, Total BID and QD (N=60)): 2 (3.3) n (%)
Best overall response: Partial response (EOC, Total BID and QD (N=60)): 19 (31.7) n (%)
Best overall response: Progressive disease (EOC, Total BID and QD (N=60)): 2 (3.3) n (%)
Best overall response: Stable disease (EOC, Total BID and QD (N=60)): 30 (50.0) n (%)
Clinical benefit rate (EOC, Total BID and QD (N=60)): 51.7 (38.39-64.77) % (95% CI)
Disease control rate (EOC, Total BID and QD (N=60)): 88.3 (77.43-95.18) % (95% CI)
Objective response rate (EOC, Total BID and QD (N=60)): 38.3 (26.07-51.79) % (95% CI)
Best overall response: Complete response [3]: 0 (0) n (%)
Best overall response: Not assessed [3]: 0 (0) n (%)
Best overall response: Not evaluable [3]: 1 (11.1) n (%)
Best overall response: Partial response [3]: 2 (22.2) n (%)
Best overall response: Progressive disease [3]: 0 (0) n (%)
Best overall response: Stable disease [3]: 6 (66.7) n (%)
Clinical benefit rate [3]: 33.3 (7.49-70.07) % (95% CI)
Disease control rate [3]: 88.9 (51.75-99.72) % (95% CI)
ORR, subgroup Age <65 [3]: 20.0 (0.51-71.64) [5/9] % (95% CI)
ORR, subgroup Age ≥65 [3]: 25.0 (0.63-80.59) [4/9] % (95% CI)
ORR, subgroup Baseline ECOG performance status 0 [3]: 0.0 (0.00-97.50) [1/9] % (95% CI)
ORR, subgroup Baseline ECOG performance status ≥1 [3]: 25.0 (3.19-65.09) [8/9] % (95% CI)
ORR, subgroup Germline BRCA status Mutant [3]: 33.3 (0.84-90.57) [3/9] % (95% CI)
ORR, subgroup Germline BRCA status Wild-type/Unknown [3]: 16.7 (0.42-64.12) [6/9] % (95% CI)
ORR, subgroup Germline or somatic BRCA status Mutant [3]: 33.3 (0.84-90.57) [3/9] % (95% CI)
ORR, subgroup Germline or somatic BRCA status Wild-type/Unknown [3]: 16.7 (0.42-64.12) [6/9] % (95% CI)
ORR, subgroup HRD status Negative/Unknown [3]: 20.0 (0.51-71.64) [5/9] % (95% CI)
ORR, subgroup HRD status Positive [3]: 25.0 (0.63-80.59) [4/9] % (95% CI)
ORR, subgroup Platinum-sensitivity status Sensitive [3]: 66.7 (9.43-99.16) [3/9] % (95% CI)
ORR, subgroup Solid tumor stage 3 [3]: 0.0 (0.00-52.18) [5/9] % (95% CI)
ORR, subgroup Solid tumor stage 4 [3]: 50.0 (1.26-98.74) [2/9] % (95% CI)
Objective response rate [3]: 22.2 (2.81-60.01) % (95% CI)
PFS censored: No disease progression or death [3]: 2 (22.2) n (%)
PFS censored: No postbaseline assessment [3]: 0 (0) n (%)
PFS censored: ≥2 consecutive missed assessments [3]: 0 (0) n (%)
PFS events: Death [3]: 3 (33.3) n (%)
PFS events: Disease progression [3]: 4 (44.4) n (%)
PFS: Censored [3]: 2 (22.2) n (%)
PFS: Events [3]: 7 (77.8) n (%)
Progression-Free Survival, Median [3]: 4.9 (1.84-NE) months (95% CI)
Best overall response: Complete response [4]: 4 (7.8) n (%)
Best overall response: Not assessed [4]: 3 (5.9) n (%)
Best overall response: Not evaluable [4]: 1 (2.0) n (%)
Best overall response: Partial response [4]: 17 (33.3) n (%)
Best overall response: Progressive disease [4]: 2 (3.9) n (%)
Best overall response: Stable disease [4]: 24 (47.1) n (%)
Clinical benefit rate [4]: 54.9 (40.3–68.9) % (95% CI) and 54.9 (40.34-68.87) % (95% CI)
Disease control rate [4]: 88.2 (76.1–95.6) % (95% CI) and 88.2 (76.13-95.56) % (95% CI)
Objective response rate [4]: 41.2 (27.6–55.8) % (95% CI) and 41.2 (27.58-55.83) % (95% CI)
